This passage reports IC50 results from ChEMBL document CHEMBL1130642, “Conformationally constrained NO synthase inhibitors: rigid analogs of L-N-iminoethylornithine” (Bioorg Med Chem Lett, 1998).

In the experiment the target is T1, Nitric oxide synthase, inducible (Mus musculus, UniProt P29477).
T1 sequence (P29477 whole entry): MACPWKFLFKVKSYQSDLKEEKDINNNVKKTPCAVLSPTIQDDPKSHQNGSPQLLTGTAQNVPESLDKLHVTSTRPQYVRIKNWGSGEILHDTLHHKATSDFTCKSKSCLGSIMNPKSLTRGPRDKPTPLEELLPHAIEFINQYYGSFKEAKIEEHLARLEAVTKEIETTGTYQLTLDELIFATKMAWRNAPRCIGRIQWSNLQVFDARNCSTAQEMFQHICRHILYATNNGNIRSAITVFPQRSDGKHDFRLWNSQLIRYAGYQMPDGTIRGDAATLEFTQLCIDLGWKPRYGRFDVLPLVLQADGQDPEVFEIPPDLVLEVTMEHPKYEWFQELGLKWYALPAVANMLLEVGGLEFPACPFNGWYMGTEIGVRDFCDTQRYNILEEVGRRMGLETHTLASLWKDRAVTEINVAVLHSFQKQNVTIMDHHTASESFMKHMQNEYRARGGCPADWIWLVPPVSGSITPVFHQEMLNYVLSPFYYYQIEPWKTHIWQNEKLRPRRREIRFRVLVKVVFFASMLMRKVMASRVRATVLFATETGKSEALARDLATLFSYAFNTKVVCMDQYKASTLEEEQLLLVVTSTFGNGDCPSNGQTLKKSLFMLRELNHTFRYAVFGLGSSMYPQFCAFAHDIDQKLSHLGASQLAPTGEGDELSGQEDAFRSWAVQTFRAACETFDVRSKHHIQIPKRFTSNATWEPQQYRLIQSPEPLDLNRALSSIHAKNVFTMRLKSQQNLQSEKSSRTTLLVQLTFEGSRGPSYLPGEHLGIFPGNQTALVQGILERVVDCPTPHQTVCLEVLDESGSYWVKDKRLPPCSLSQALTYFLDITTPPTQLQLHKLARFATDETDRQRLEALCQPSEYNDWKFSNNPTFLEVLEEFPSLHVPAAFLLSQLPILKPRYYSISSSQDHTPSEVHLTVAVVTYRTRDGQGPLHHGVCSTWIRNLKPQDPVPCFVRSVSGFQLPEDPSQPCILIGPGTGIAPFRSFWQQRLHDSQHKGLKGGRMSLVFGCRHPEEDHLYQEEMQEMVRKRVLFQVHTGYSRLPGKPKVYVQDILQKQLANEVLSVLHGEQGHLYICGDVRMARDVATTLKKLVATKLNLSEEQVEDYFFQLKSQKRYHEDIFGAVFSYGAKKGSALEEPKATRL
Nature of the experiment: Compound was evaluated for inhibitory activity against iNOS obtained from RAW 264.7 cells. The format is cell-based.
As a reminder, the IC50 is the concentration that inhibits the measured activity by half. For `COC(=O)[C@@H](N)[C@H]1CC[C@H](/N=C(/C)N)C1`, half-maximal inhibition (IC50) was put at 50 µM.
In the case of `COC(=O)[C@@H](N)[C@@H]1CC[C@H](/N=C(/C)N)C1` it was over 200 µM.
In the case of `COC(=O)[C@@H](N)[C@@H]1CC[C@@H](N=C(C)N)C1` it was over 200 µM.
`NC1=NC[C@@H](C[C@H](N)C(=O)O)C1`: 36 µM corresponded to half-maximal inhibition (IC50).
`CC(=N)N1CC[C@H](C[C@H](N)C(=O)O)C1` displayed an IC50 of 40 µM.
The compound `CC(=N)N1CC[C@@H](C[C@H](N)C(=O)O)C1` came in with a half-maximal inhibitory concentration (IC50) of over 200 µM.
In the case of `NC1=NC[C@H](C[C@H](N)C(=O)O)C1` it was 25 µM; in that of `COC(=O)[C@@H](N)[C@H]1CC[C@@H](N=C(C)N)C1`, 47 µM.
Compound `CC(=N)NCCC[C@H](N)C(=O)O` [L-NIO] had an IC50 of 9 µM.
